Experimental data from ChEMBL document CHEMBL4373694 (J Med Chem, 2019).
Active and inactive are the calls of the source. The rule behind the calls is not given here.

Assays:
[1] = Inhibition of 20S proteasome beta 5c (unknown origin) preincubated for 1 hr followed by fluorescence based assay; set-up: species or system Homo sapiens
[2] = Inhibition of human 20S proteasome beta 5i preincubated for 1 hr followed by fluorescence based assay
Homo sapiens [3] = species: Homo sapiens; test: Selectivity ratio, ratio of IC50 for 20S proteasome beta 5c (unknown origin) to IC50 for human 20S proteasome beta 5i
Homo sapiens [4] = species: Homo sapiens; test: Selectivity ratio, ratio of IC50 for 20S proteasome beta 5c (unknown origin) to IC50 for human 20S proteasome beta 1i
[5] = Inhibition of human 20S proteasome beta 1i
[6] = Inhibition of 20S proteasome beta 1c derived from human erythrocytes preincubated for 1 hr using Z-nLPnLD-Glo peptide as substrate by proteasome-glo caspase-like assay
Homo sapiens [7] = species: Homo sapiens; test: Selectivity ratio, ratio of IC50 for human 20S proteasome beta 1i to IC50 for 20S proteasome beta 5i (unknown origin)
Homo sapiens [8] = species: Homo sapiens; test: Selectivity ratio, ratio of IC50 for 20S proteasome beta 1c (unknown origin) to IC50 for human 20S proteasome beta 5i
PBMC [9] = test: Cytotoxicity against human PBMC cells assessed as reduction in cell viability by CellTiter Glo assay; assay type: functional, cell-based
[10] = Cytotoxicity against human pDC assessed as reduction in cell viability by CellTiter Glo assay; assay type: functional
[11] = Cytotoxicity against human plasmablasts assessed as reduction in cell viability by CellTiter Glo assay; assay type: functional
PBMC [12] = test: Induction of ubiquitin accumulation in human PBMC cells at 100 nM after 6 hrs by Western blot analysis; assay type: functional, cell-based
PBMC [13] = test: Induction of apoptosis in human PBMC cells at 10 uM after 12 hrs by caspase 3,7-glo assay; assay type: functional, cell-based
Homo sapiens [14] = species: Homo sapiens; test: Inhibition of 20S proteasome beta 5i in human PBMC cells assessed as upregulation of 20S proteasome beta 5c level at 100 nM after 24 to 72 hrs by Western blot analysis; assay type: cell-based
Homo sapiens [15] = species: Homo sapiens; test: Inhibition of 20S proteasome beta 5i in human PBMC cells assessed as induction of PSMB5 expression at 100 nM after 3 to 72 hrs by RT-PCR analysis; assay type: cell-based
Homo sapiens [16] = species: Homo sapiens; test: Inhibition of 20S proteasome beta 5i in human PBMC cells assessed as induction of PSMB6 expression at 100 nM after 3 to 72 hrs by RT-PCR analysis; assay type: cell-based
Homo sapiens [17] = species: Homo sapiens; test: Inhibition of 20S proteasome beta 5i in human PBMC cells assessed as induction of PSMB7 expression at 100 nM after 3 to 72 hrs by RT-PCR method; assay type: cell-based
Homo sapiens [18] = species: Homo sapiens; test: (§1) Cytotoxicity against anti-CD3/CD28-stimulated human CD4-positive T cells with CRISP/CAS9 20S proteasome beta 5c knockout assessed as reduction in cell viability measured on day 8 by CellTiter Glo assay relative to control; assay type: functional
[19] = Inhibition of 20S proteasome beta 5i/20S proteasome beta 1i in human PBMC cell lysate assessed as reduction in chymotrypsin-like activity pre-incubated for 30 mins followed by Meo-Suc-GLF-AM substrate addition and measured after 30 mins by fluorescence assay; assay type: subcellular
[20] = Cytotoxicity against anti-CD3/CD28-stimulated human CD4-positive T cells with CRISP/CAS9 20S proteasome beta 5i knockout assessed as reduction in cell viability measured on day 8 by CellTiter Glo assay relative to control; assay type: functional
[21] = as §1; assay type: functional

SMILES	IC50 [1]	IC50 [2]	Ratio IC50 (Homo sapiens [3])	Ratio IC50 (Homo sapiens [4])	IC50 [5]	IC50 [6]	IC50 [19]	other results
CC(C)C[C@H](NC(=O)c1cn(C2CCCCC2)nn1)B(O)O	2900 nM	4.1 nM	710	1300 to 3400	0.85 nM	0.48 µM	60 nM	Ratio IC50 (Homo sapiens [7]): 0.2; Ratio IC50 (Homo sapiens [8]): 120; IC50 (PBMC [9]): 7.3 µM; IC50 [10]: 3.7 µM; IC50 [11]: 2900 nM
COc1ccc(C(=O)NCCn2cc(C(=O)N[C@@H](CC(C)C)B(O)O)nn2)c(OC)c1OC	37 nM	2.2 nM	17	5.2	8.1 nM	1.4 µM	34 nM	Ratio IC50 (Homo sapiens [7]): 5.2; Ratio IC50 (Homo sapiens [8]): 640; IC50 (PBMC [9]): 0.1 µM; IC50 [10]: 0.022 µM; IC50 [11]: 54 nM; inhibition (Homo sapiens [15]): Active; inhibition (Homo sapiens [16]): Active; inhibition (Homo sapiens [17]): Active
CC(C)C[C@H](NC(=O)c1nnc(Cc2ccccc2)[nH]1)B(O)O	350 nM	19 nM			6.3 nM	0.061 µM	200 nM	
CC(C)C[C@H](NC(=O)c1cn(-c2ccccc2)nn1)B(O)O	760 nM	1.4 nM		1300 to 3400	0.58 nM	4.2 µM	25 nM	
O=C(N[C@@H](Cc1ccc(Cl)cc1)B(O)O)c1cnn(-c2ccccc2)c1	3200 nM	6.8 nM			12 nM	> 20 µM	130 nM	
COC[C@H](NC(=O)c1cc(C)on1)C(=O)N[C@H](C(=O)N[C@@H](CC(C)C)C(=O)[C@@]1(C)CO1)C1CC1	78 nM	2100 nM	0.04	0.11	690 nM	11 µM		inhibition (Homo sapiens [15]): Active; inhibition (Homo sapiens [16]): Active; inhibition (Homo sapiens [17]): Active
O=C(N[C@@H](Cc1ccc(Cl)cc1)B(O)O)c1cn(-c2ccccc2)nn1	64 nM	0.91 nM			15 nM	5.5 µM	3.2 nM	
CC(C)C[C@H](NC(=O)[C@H](Cc1ccccc1)NC(=O)c1cnccn1)B(O)O [BORTEZOMIB]					7.9 nM	0.032 µM		IC50 (PBMC [9]): 0.0027 µM; IC50 [10]: 0.0052 µM; IC50 [11]: 3.9 nM; inhibition (Homo sapiens [15]): Active; inhibition (Homo sapiens [16]): Active; inhibition (Homo sapiens [17]): Active; fold change (FC) [20]: 3; fold change (FC) [21]: 3
COc1ccc(C[C@H](NC(=O)[C@H](C)NC(=O)CN2CCOCC2)C(=O)N[C@@H](Cc2ccccc2)C(=O)[C@@]2(C)CO2)cc1	1300 nM	145 nM	9 to 20	1.6	790 nM	13 µM		inhibition (Homo sapiens [15]): Active; inhibition (Homo sapiens [16]): Active; inhibition (Homo sapiens [17]): Active

The next lines start with results.

IC50 [1]	IC50 [2]	Ratio IC50 (Homo sapiens [3])	Ratio IC50 (Homo sapiens [4])	IC50 [5]	IC50 [6]	IC50 [19]	SMILES	other results
2400 nM	8.1 nM	283 to 296	1.1	2200 nM	> 20 µM		C=CC(=O)N(CC(=O)N[C@@H](Cc1ccc(C)cc1C)B(O)O)c1ccccc1F	Ratio IC50 (Homo sapiens [7]): 247; Ratio IC50 (Homo sapiens [8]): > 2400; IC50 (PBMC [9]): 5.7 µM; IC50 [10]: 6 µM; IC50 [11]: 670 nM; Activity (PBMC [12]): inactive; Activity (PBMC [13]): inactive; inhibition (Homo sapiens [14]): Active; inhibition (Homo sapiens [15]): Active; inhibition (Homo sapiens [16]): Active; inhibition (Homo sapiens [17]): Active; Activity (Homo sapiens [18]): Active
420 nM	1.2 nM			17 nM	> 20 µM	11 nM	Cc1ccc(C[C@H](NC(=O)c2cn(Cc3ccccc3)nn2)B2O[C@@H]3C[C@@H]4C[C@@H](C4(C)C)[C@]3(C)O2)c(C)c1	
7300 nM	40 nM			15 nM	> 20 µM	290 nM	Cc1c(C(=O)N[C@@H](CC(C)C)B(O)O)nnn1Cc1ccccc1	Ratio IC50 (Homo sapiens [7]): 0.4
270 nM	0.68 nM			50 nM	> 20 µM	6.9 nM	Cc1ccc(C[C@H](NC(=O)c2cn(-c3ccccc3)nn2)B2O[C@@H]3C[C@@H]4C[C@@H](C4(C)C)[C@]3(C)O2)c(C)c1	
46 nM	0.54 nM			3.9 nM	0.53 µM	2.3 nM	O=C(N[C@@H](Cc1ccc(Cl)cc1)B(O)O)c1cn(Cc2ccccc2)nn1	
> 10000 nM	130 nM			41 nM	18 µM	310 nM	Cc1c(C(=O)N[C@@H](CC(C)C)B(O)O)nnn1-c1ccccc1	
7700 nM	87 nM			110 nM	> 20 µM	470 nM	O=C(N[C@@H](Cc1ccc(Cl)cc1)B(O)O)c1cnn(Cc2ccccc2)c1	
890 nM	4 nM	220 to 710	1300 to 3400	0.55 nM	0.071 µM	45 nM	CC(C)C[C@H](NC(=O)c1cn(Cc2ccccc2)nn1)B(O)O	Ratio IC50 (Homo sapiens [7]): 0.14
1300 nM	4.1 nM			92 nM	> 20 µM	80 nM	Cc1ccc(C[C@H](NC(=O)c2cc(Cc3ccccc3)on2)B2O[C@@H]3C[C@@H]4C[C@@H](C4(C)C)[C@]3(C)O2)c(C)c1	
9600 nM	55 nM	174		9 nM	> 20 µM	250 nM	CC(C)C[C@H](NC(=O)c1cn(C)nn1)B1O[C@@H]2C[C@@H]3C[C@@H](C3(C)C)[C@]2(C)O1	
9100 nM	4.1 nM	2200		8500 nM	> 20 µM	79 nM	Cc1ccc(C[C@H](NC(=O)c2nnn(Cc3ccccc3)c2C)B2O[C@@H]3C[C@@H]4C[C@@H](C4(C)C)[C@]3(C)O2)c(C)c1	Ratio IC50 (Homo sapiens [7]): 2100; Ratio IC50 (Homo sapiens [8]): > 4800; IC50 (PBMC [9]): > 10 µM; IC50 [10]: > 10 µM; IC50 [11]: 9300 nM
> 10000 nM	360 nM			19 nM	> 20 µM	8900 nM	CC(C)C[C@H](NC(=O)c1ncn(Cc2ccccc2)n1)B(O)O	
3000 nM	23 nM			9.4 nM	1.4 µM	85 nM	CC(C)C[C@H](NC(=O)c1cc(Cc2ccccc2)on1)B(O)O	
